The source made the active and inactive calls. The rule behind the calls is not given here.

We go through six compounds from ChEMBL document CHEMBL4229333, “Effects of rigidity on the selectivity of protein kinase inhibitors” (Eur J Med Chem, 2018).

The target in assay [1] is T1, Tyrosine-protein kinase ABL1 (Homo sapiens, UniProt P00519). The experiment in a line: Inhibition of ABL (unknown origin) at 30 nM by phosphocellulose paper disk assay.
Assay [2] has as its target T1, Tyrosine-protein kinase ABL1. Description: Inhibition of ABL (unknown origin) by phosphocellulose paper disk assay.
Assay [3] has as its target Serine/threonine-protein kinase B-raf (Homo sapiens, UniProt P15056, V600E). Description: Inhibition of BRAF V600E mutant (unknown origin) after 20 mins by immunoblotting assay. (In general: Immunoblotting shows a protein as a band on a membrane.)
Assay [4] has as its system Serine/threonine-protein kinase B-raf (Homo sapiens), P15056 [V600E]. The experiment in a line: Inhibition of BRAF V600E mutant in human A375 cells assessed as decrease in MEK phosphorylation up to 100 uM after 1 hr by immunoblotting assay. It is filed as cell-based.
Assay [5] has as its target Bcr/Abl fusion protein (Homo sapiens, UniProt P00519). Description: Inhibition of BCR-ABL (unknown origin) expressed in mouse BA/F3 cells assessed as reduction in ABL phosphorylation at Y412 residue incubated for 3 hrs by immunoblotting assay. The class given is cell-based.

Sequence of Serine/threonine-protein kinase B-raf (P15056 2-766 V600E limits assumed): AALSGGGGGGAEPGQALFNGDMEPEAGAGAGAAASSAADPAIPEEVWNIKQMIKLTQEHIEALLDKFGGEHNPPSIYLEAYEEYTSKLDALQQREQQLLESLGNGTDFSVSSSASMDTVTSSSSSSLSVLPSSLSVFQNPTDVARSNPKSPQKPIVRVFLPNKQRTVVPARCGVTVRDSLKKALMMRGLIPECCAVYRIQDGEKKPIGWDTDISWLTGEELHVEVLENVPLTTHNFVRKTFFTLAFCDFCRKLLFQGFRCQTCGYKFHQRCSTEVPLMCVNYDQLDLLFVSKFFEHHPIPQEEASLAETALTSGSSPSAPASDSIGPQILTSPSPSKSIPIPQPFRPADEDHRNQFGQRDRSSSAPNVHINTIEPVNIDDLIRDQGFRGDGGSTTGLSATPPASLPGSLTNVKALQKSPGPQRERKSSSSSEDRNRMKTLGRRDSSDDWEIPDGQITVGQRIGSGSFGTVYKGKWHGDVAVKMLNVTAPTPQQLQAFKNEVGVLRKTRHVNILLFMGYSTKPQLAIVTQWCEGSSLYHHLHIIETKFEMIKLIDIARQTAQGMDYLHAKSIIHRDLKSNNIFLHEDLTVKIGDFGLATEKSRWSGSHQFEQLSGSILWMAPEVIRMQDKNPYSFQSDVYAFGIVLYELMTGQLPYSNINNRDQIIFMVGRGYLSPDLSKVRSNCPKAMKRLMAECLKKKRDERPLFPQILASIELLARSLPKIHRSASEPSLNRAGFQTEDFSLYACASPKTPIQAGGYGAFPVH
T1 sequence (P00519 whole entry): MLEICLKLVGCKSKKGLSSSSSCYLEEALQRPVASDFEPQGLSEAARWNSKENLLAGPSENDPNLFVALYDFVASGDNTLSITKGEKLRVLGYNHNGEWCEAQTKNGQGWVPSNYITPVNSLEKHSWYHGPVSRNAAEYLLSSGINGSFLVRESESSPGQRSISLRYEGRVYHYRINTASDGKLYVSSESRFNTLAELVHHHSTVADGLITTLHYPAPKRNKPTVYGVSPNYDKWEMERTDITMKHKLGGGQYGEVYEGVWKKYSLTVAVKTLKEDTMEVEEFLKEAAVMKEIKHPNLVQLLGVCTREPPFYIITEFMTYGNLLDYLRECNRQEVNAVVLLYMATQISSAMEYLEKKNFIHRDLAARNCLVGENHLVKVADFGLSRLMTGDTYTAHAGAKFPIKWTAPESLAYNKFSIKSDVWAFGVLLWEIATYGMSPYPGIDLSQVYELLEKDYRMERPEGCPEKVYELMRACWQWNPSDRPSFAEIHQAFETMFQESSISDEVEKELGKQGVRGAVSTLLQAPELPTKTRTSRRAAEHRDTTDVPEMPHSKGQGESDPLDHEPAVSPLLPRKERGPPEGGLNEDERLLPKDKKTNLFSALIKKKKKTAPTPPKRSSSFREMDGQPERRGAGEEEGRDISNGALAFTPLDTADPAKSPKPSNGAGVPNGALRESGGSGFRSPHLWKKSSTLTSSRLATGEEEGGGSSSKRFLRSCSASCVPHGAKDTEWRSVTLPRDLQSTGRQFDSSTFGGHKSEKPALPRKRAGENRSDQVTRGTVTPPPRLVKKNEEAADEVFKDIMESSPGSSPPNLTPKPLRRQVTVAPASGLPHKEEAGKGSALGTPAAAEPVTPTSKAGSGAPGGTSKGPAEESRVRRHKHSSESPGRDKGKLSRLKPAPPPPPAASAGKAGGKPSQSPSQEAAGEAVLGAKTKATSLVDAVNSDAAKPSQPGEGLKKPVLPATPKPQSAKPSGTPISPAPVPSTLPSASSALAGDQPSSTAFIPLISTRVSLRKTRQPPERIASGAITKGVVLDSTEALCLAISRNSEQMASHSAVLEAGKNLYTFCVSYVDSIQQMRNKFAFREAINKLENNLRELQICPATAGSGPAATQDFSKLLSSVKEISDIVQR
Sequence of Bcr/Abl fusion protein (P00519 whole entry, the tested form may be a part): as the sequence (P00519 whole entry) above
Sequence of Bcr/Abl fusion protein (P11274 whole entry, further chain, the tested form may be a part): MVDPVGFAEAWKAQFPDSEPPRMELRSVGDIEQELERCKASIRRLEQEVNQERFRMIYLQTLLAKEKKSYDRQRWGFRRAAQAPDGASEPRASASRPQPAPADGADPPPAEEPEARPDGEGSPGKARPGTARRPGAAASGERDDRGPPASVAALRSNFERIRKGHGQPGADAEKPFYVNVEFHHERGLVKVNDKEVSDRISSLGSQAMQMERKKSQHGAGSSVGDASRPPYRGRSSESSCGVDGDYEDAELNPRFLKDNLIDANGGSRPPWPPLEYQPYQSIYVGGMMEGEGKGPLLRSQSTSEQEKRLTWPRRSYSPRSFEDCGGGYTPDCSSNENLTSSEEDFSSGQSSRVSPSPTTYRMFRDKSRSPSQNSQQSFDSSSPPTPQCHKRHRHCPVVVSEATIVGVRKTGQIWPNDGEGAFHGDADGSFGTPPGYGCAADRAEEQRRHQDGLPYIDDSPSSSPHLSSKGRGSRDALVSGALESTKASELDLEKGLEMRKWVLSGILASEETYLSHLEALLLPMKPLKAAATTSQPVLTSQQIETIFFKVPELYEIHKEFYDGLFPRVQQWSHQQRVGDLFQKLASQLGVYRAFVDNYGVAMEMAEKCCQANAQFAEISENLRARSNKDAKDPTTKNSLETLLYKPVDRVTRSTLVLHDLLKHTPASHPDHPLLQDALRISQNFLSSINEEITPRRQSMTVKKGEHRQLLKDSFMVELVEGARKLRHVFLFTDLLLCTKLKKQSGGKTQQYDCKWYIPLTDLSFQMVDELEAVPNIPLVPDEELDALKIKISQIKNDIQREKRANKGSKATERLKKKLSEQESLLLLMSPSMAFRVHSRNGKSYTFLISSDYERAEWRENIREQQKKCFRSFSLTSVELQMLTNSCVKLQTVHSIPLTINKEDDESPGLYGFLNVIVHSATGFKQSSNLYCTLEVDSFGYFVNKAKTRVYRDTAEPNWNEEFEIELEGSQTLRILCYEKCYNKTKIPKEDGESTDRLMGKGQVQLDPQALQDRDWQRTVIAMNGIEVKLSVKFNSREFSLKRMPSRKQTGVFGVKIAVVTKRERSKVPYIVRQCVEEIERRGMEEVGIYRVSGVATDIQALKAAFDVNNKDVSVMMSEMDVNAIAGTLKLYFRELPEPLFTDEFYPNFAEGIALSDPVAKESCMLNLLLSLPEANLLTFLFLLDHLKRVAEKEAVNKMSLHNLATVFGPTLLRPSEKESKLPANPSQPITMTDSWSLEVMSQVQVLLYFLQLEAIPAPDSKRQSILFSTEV
Sequence of Serine/threonine-protein kinase B-raf (Homo sapiens), P15056 [V600E] (P15056 whole entry V600E, the tested form may be a part): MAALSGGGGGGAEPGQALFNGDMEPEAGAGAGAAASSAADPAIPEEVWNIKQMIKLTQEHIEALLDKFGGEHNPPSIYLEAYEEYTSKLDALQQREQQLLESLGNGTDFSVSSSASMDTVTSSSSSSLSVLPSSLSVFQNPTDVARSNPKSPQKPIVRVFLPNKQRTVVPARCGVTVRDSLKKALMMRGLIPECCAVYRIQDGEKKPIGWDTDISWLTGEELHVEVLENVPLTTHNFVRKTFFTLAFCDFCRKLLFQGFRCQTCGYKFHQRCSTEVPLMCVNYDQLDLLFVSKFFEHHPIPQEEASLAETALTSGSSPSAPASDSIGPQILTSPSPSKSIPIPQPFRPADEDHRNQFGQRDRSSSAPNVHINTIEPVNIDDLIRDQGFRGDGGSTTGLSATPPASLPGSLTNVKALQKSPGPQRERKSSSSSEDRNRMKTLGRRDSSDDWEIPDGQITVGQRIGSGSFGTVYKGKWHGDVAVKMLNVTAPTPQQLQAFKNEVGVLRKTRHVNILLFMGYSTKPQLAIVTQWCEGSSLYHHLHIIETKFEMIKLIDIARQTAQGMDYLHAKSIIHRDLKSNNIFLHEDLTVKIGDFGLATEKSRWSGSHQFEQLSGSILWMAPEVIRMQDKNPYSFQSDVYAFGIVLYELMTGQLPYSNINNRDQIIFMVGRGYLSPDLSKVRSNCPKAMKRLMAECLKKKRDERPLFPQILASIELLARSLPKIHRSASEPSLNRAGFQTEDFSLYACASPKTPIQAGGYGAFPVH

For the compound `CC(C)n1nc(C#Cc2cccc3cc(-c4ccc(Cl)c(C(F)(F)F)c4)ncc23)c2c(N)ncnc21`, the inhibition entry in assay [1] is “inactive”. The figures for the IC50 in assay [2] and in assay [3] were 22 nM and 87 nM, respectively.
Take `Cc1ccc(-c2cc3cccc(C#Cc4nn(C(C)C)c5ncnc(N)c45)c3cn2)cc1`: inhibition in assay [3] was half-maximal at 24 nM (IC50).
Regarding `CCn1nc(C#Cc2cccc3cc(-c4cccc(C(F)(F)F)c4)ncc23)c2c(N)ncnc21`, the inhibition entry in assay [4] and in assay [1] was “inactive” throughout. The IC50 (as a rule, the concentration that inhibits the measured activity by half) in assay [2] was found to be 3.5 nM; in assay [3], 13 nM.
For the compound `CC(C)n1nc(C#Cc2cccc3cc(-c4ccc(Cl)cc4)ncc23)c2c(N)ncnc21`, in assay [3], the midpoint of inhibition, the IC50, lay at 46 nM.
For the compound `CC(C)n1nc(C#Cc2cccc3cc(-c4ccc(CN5CCN(C)CC5)cc4)ncc23)c2c(N)ncnc21`, the inhibition result in assay [1] was “inactive”. Also, the IC50 in assay [2] stood at 7 nM; in assay [3] it was 51 nM; in assay [5], 211 nM.
`Cc1ccc2cc(-c3cccc(C(F)(F)F)c3)ncc2c1C#Cc1nn(C(C)C)c2ncnc(N)c12`: the inhibition entry in assay [1] is “inactive”. Besides, the IC50 is 10 nM in assay [2] and 44 nM in assay [3].
